Measurements from US20030199476A1, “Medicament for the stimulation of leucopoiesis and treatment of tumour and protozoan diseases acarinosis and arthropod-borne diseases and a method for production thereof” (priority 2000, published 2003).
Where two headings read alike, the source gives them in different places.

Key:
[1] = Activity tests: necessary administration quantities; format: in vivo; settings: Form: Free (oral); rats/mice
From the text: (§1) Toxicity and Activity Tests

Toxicity tests = format: in vivo; settings: rats/mice; form not stated
From the text: as §1

[2] = test system: Entamoeba histolytica HM-1:IMSS; assay: Cytotoxicity of alkylphosphocholines on amebae (Trypan blue count, Probit); format: cell-based; settings: strain HM-1:IMSS, read-out: ED50 (the source's name)
Protocol: (§2) Entamoeba histolytica SFL-3 and HM-1: IMSS (American Type Culture collection, order number ATCC 30459), pathogenic amebae of zymodeme II, were cultured, at 37° C., in TYI-S-33 medium (Diamond et al., Trans. Roy. Soc. Trop. Med. Hyg. 72: 431-432 (1978)) containing 10% bovine serum. The cultures of SFL-3 were kept in 100 ml glass bottles while the cultures of HM-1:IMSS were kept in 50 ml tissue culture flasks.
(§3) 38 h cultures of E histolytica were used for measuring the cytotoxicity of the alkylphosphocholines. The amebae were released from the culture vessels by shaking, centrifuged down for 3 min at 2 000 revolutions per minute and 4° C. in a Heraeus Minifuge RF, resuspended in 20 ml of TYI-S-33 medium and counted in a hemocytometer chamber.
(§4) For each measurement, in each case 8-10×10^5 amebae were provided in 12 ml of medium in Pyrex tubes fitted with a screw closure and the alkylphosphocholine was added in a volume of 660 μl. […] (w/v) ethanol in double-distilled water was used for dissolving hexadecylphosphocholine and octadecylphosphocholine, while double-distilled water on its own was used for all the other substances and the liposomal preparations. 5% ethanol or double-distilled water was correspondingly added to the control cultures. The concentrations of alkylphosphocholines employed were 100 μM, 50 μM, 20 μM, 10 μM and 5 μM. Six cultures were in each case prepared for each of the concentrations.
(§5) The effect of the alkylphosphocholines was determined after 24 h and after 48 h. For this, in each case three of the cultures were shaken up and transferred into in each case three plastic centrifuge tubes. The amebae were centrifuged down for 5 min at 2 200 rpm and 4° C. and suspended in a final volume of 1 ml in a 1:1 mixture of Trypan blue (Sigma) and PBS. Each of the samples was then counted in the hemocytometer and the number of living and dead, stained blue due to having taken up the die, amebae was recorded.
(§6) The results were analyzed using the “Probit” program (Wernsdorfer and Wernsdorfer, Mitt. Österr. Ges. Tropenmed. Parasitol. 17:221-228 (1995)).
(§7) The tests were carried out as described above. The E. histolytica strains SFL-3 and HM-1:IMSS were tested. In each case six cultures were prepared for each concentration of alkylphosphocholine in pure or liposomal form. Three of the cultures were counted after […] and three further cultures were counted after 48 h. In each case two independent experiments were carried out for each of the two strains.

[3] = test system: Entamoeba histolytica SFL-3; assay: as above; format: cell-based; settings: read-out: ED50 (the source's name)
Protocol: as §2, §3, §4, §5, §6, §7

SMILES | Necessary administration quantities [1] [µmol] | Toxicity (Toxicity tests) [µmol] | EC50 ([2]; day 1 (24 h)) [µM] | EC50 ([2]; day 2 (48 h)) [µM] | EC50 ([3]; strain SFL-3, day 1 (24 h)) [µM] | EC50 ([3]; strain SFL-3, day 2 (48 h)) [µM]
CCCCCCCCCCCCCCCCOP(=O)([O-])OCC[N+](C)(C)C [APC 1, hexadecylphosphocholine] | 60 | 90 | 94 | 83 | 88 | 50
CCCCCCCCCCCCCCCCCCOP(=O)([O-])OCC[N+](C)(C)C [APC 2, octadecylphosphocholine] | – | – | 80 | 70 | 36 | 24
CCCCCCCC/C=C\CCCCCCCCOP(=O)([O-])OCC[N+](C)(C)C [APC 9, oleylphosphocholine] | 20 | – | 121 | 80 | 32 | 16
CCCCCCCC/C=C\CCCCCCCCCOP(=O)([O-])OCC[N+](C)(C)C [APC 10, (Z)-10-nonadecenylphosphocholine] | – | – | 112 | 87 | 24 | 20
CCCCCCCC/C=C\CCCCCCCCCCCCOP(=O)([O-])OCC[N+](C)(C)C [Erucyl-PC] | 100 | – | – | – | – | –
CCCCCCCCCCCCCCCCCCCOP(=O)([O-])OCC[N+](C)(C)C [Nonadecyl-PC] | 20 | – | – | – | – | –
